The results in this text go back to patent US8022180B2, “Method for preventing and treating Alzheimer's disease” (Affiris Forschungs-und Entwicklungs GmbH, priority 2004, dated 2011).

The assay deals with monoclonal antibody specific for the natural N-terminal Aβ42 sequence DAEFRH. The experiment in a line: Inhibition assay: mimotope peptides compete with plate-bound DAEFRH-BSA for recognition by the biotinylated monoclonal antibody (ELISA). It counts as binding, mice. The note with it: for inhibition of epitope recognition by the monoclonal antibody (in words): FIGS. 2-9; for Inhibitory capacity of mimotopes: summary Tables 1 and 2, in words; for IC50 (inhibition of monoclonal antibody binding to the original epitope): competition ELISA, plate-bound DAEFRH-BSA, peptides 20 min at 37° C.; for inhibition (s/m/—): peptides of the new screening round and 5mers with non natural amino acids. Set-up: key to inhibition (s/m/—): s: strong inhibition; m: moderate inhibition; —: no inhibition.
From the text: 1.: Generation of Monoclonal Antibodies (mAb) to Detect Aβ42-Derived Peptide Species with Free N-Terminus (Free Aspartic Acid at the N-Terminus)
Mice are vaccinated with the 6mer peptide DAEFRH (SEQ ID NO: 26) (natural N-terminal Aβ42 sequence) linked to the protein bovine serum albumin BSA (to make use of the hapten-carrier-effect), emulsified in CFA (first injection) and IFA (booster injections). DAEFRH (SEQ ID NO: 26)-peptide-specific, antibody-producing hybridomas are detected by ELISA (DAEFRH (SEQ ID NO: 26)-peptide-coated ELISA plates).
FIGS. 2 and 3 describe the results of inhibition assays performed with mimotope peptides included in and obtained from the 5 libraries (as described). The mimotope peptides compete with the original epitope for recognition by the monoclonal antibody. Original epitope and mimotope peptides contain an additional C at the C-terminus for coupling to a protein carrier (if desired).
(§1) After blocking with PBS/BSA 1% (200 μl/well, 12 h, 4° C.), the plates are washed 3× times with PBS/Tween. Then, biotinylated monoclonal antibody (1:2000, 50 μl/well) and peptides (50 μl/well) at 50, 5, 0.5, 0.05, 0.005, and 0.0005 μg/ml are added for 20 min. at 37° C. The plates are washed 3× times with PBS/Tween and are incubated with horseradish peroxidase (HRP)-labeled streptavidin (100 μl/well, 30 min, RT). The plates are washed 5× times with PBS/Tween and are incubated with ABTS+H2O2 (0.1% w/v, 10 to 45 min) and the reaction is stopped with citric acid followed by photometric evaluation (wavelength 405 nm).
FIGS. 4 and 5 describe the results of inhibition assays performed with mimotope peptides included in and obtained from the 5 libraries (as described). The mimotope peptides compete with the original epitope for recognition by the monoclonal antibody. Original epitope and mimotope peptides contain an additional C at the C-terminus (position 7) for coupling to a protein carrier (if desired).
as §1, with “different concentrations” for “50, 5, 0.5, 0.05, 0.005, and 0.0005 μg/ml”
FIGS. 6 to 8 describe the results of inhibition assays performed with mimotope peptides included in and obtained from the 2 libraries (as described above). The mimotope peptides compete with the original epitope for recognition by the monoclonal antibody. Original epitope and mimotope peptides contain an additional C at the C-terminus (position 7 or position 8, respectively) for coupling to a protein carrier (if desired).
(In an ELISA, binding on a coated surface is turned into a signal by an enzyme label.)

“Also recorded” adds a separate entry of the source. Where a SMILES comes first, the peptide text is derived from it. Where no end group is shown, it is not given here. [ ]: non-standard residue; d: D form. Tle = CC(C)(C)[C@H](N)C(=O)O

For `CC[C@H](C)[C@H](NC(=O)[C@H](CCCNC(=N)N)NC(=O)[C@H](CC(C)C)NC(=O)[C@H](CCC(=O)O)NC(=O)[C@H](CCCNC(=N)N)NC(=O)[C@@H](N)CC(=O)O)C(=O)N[C@@H](CS)C(=O)O` [Peptide 1235, DRELRI], the “inhibition of epitope recognition by the monoclonal antibody (in words)” value (from here on “inhibition of epitope recognition”) is “block epitope recognition” and the “Inhibitory capacity of mimotopes” value is “strong”.
The like results for `CC[C@H](C)[C@H](NC(=O)[C@H](CCCCN)NC(=O)[C@H](CC(C)C)NC(=O)[C@H](CCC(=O)O)NC(=O)[C@H](CCCCN)NC(=O)[C@@H](N)CC(=O)O)C(=O)N[C@@H](CS)C(=O)O` [Peptide 1236, DKELKI] were, in that order, “block epitope recognition” and “weak”.
The like results for `CC[C@H](C)[C@H](NC(=O)[C@H](CCCCN)NC(=O)[C@H](CC(C)C)NC(=O)[C@H](CCC(=O)O)NC(=O)[C@H](CCCNC(=N)N)NC(=O)[C@@H](N)CC(=O)O)C(=O)N[C@@H](CS)C(=O)O` [Peptide 1237, DRELKI] were, in that order, “block epitope recognition” and “weak”.
Turning to `N=C(N)NCCC[C@H](NC(=O)[C@H](Cc1ccccc1)NC(=O)[C@H](CCC(=O)O)NC(=O)[C@H](Cc1ccc(O)cc1)NC(=O)[C@@H](N)CCC(=O)O)C(=O)NCC(=O)N[C@@H](CS)C(=O)O` [Peptide 1239, EYEFRG], the “inhibition of epitope recognition” value is “block epitope recognition”, the “IC50 (inhibition of monoclonal antibody binding to the original epitope)” value is given as “more than 0.5 μg/ml” and the “Inhibitory capacity of mimotopes” value was “intermediate”.
In the case of `C[C@H](NC(=O)[C@H](CC(=O)O)NC(=O)[C@H](CCCNC(=N)N)NC(=O)[C@H](Cc1ccccc1)NC(=O)[C@H](CCC(=O)O)NC(=O)[C@H](Cc1c[nH]c2ccccc12)NC(=O)[C@@H](N)CC(=O)O)C(=O)N[C@@H](CS)C(=O)O` [Peptide 1241, DWEFRDA], the “inhibition of epitope recognition” value is given as “block epitope recognition” and the “Inhibitory capacity of mimotopes” value is recorded as “strong”.
In the same order, the values of `CC[C@H](C)[C@H](NC(=O)[C@H](CCCNC(=N)N)NC(=O)[C@H](CC(C)C)NC(=O)[C@H](CCC(=O)O)NC(=O)[C@H](CCCCN)NC(=O)[C@@H](N)CC(=O)O)C(=O)N[C@@H](CS)C(=O)O` [Peptide 3001, DKELRI] are “block epitope recognition” and “strong”.
With `CC[C@H](C)[C@H](NC(=O)[C@H](CCCNC(=N)N)NC(=O)[C@H](CC(C)C)NC(=O)[C@H](CCC(=O)O)NC(=O)[C@H](Cc1c[nH]c2ccccc12)NC(=O)[C@@H](N)CC(=O)O)C(=O)N[C@@H](CS)C(=O)O` [Peptide 3002, DWELRI], the “inhibition of epitope recognition” value is “block epitope recognition” and the “Inhibitory capacity of mimotopes” value was “intermediate”.
`C[C@H](NC(=O)[C@@H](N)Cc1ccc(O)cc1)C(=O)N[C@@H](CCC(=O)O)C(=O)N[C@@H](Cc1ccccc1)C(=O)N[C@@H](CCCNC(=N)N)C(=O)NCC(=O)N[C@@H](CS)C(=O)O` [Peptide 3005, YAEFRG]: the “inhibition of epitope recognition” value is recorded as “block epitope recognition” and the “Inhibitory capacity of mimotopes” value is on record as “intermediate”.
With `C[C@H](NC(=O)[C@@H](N)CCC(=O)O)C(=O)N[C@@H](CCC(=O)O)C(=O)N[C@@H](Cc1ccccc1)C(=O)N[C@@H](CCCNC(=N)N)C(=O)NCC(=O)N[C@@H](CS)C(=O)O` [Peptide 3006, EAEFRG], the “inhibition of epitope recognition” value is “block epitope recognition” and the “Inhibitory capacity of mimotopes” value was “strong”.
As to `N=C(N)NCCC[C@H](NC(=O)[C@H](Cc1ccccc1)NC(=O)[C@H](CCC(=O)O)NC(=O)[C@H](Cc1ccc(O)cc1)NC(=O)[C@@H](N)CC(=O)O)C(=O)NCC(=O)N[C@@H](CS)C(=O)O` [Peptide 3007, DYEFRG], the “inhibition of epitope recognition” value is reported as “block epitope recognition” and the “Inhibitory capacity of mimotopes” value is listed as “strong”.
Take `CC(C)C[C@H](NC(=O)[C@@H](N)CCC(=O)O)C(=O)N[C@@H](CCC(=O)O)C(=O)N[C@@H](Cc1ccccc1)C(=O)N[C@@H](CCCNC(=N)N)C(=O)NCC(=O)N[C@@H](CS)C(=O)O` [Peptide 3008, ELEFRG]: the “Inhibitory capacity of mimotopes” value was “weak”.
On to `N=C(N)NCCC[C@H](NC(=O)[C@H](Cc1ccccc1)NC(=O)[C@H](CCC(=O)O)NC(=O)[C@H](Cc1ccccc1)NC(=O)[C@@H](N)CO)C(=O)NCC(=O)N[C@@H](CS)C(=O)O` [Peptide 3009, SFEFRG], for which the “Inhibitory capacity of mimotopes” value is on record as “weak”.
As to `C[C@@H](O)[C@H](NC(=O)[C@H](CCCNC(=N)N)NC(=O)[C@H](Cc1ccccc1)NC(=O)[C@H](CCC(=O)O)NC(=O)[C@H](Cc1c[nH]c2ccccc12)NC(=O)[C@@H](N)CO)C(=O)N[C@@H](CS)C(=O)O` [Peptide 4002, SWEFRT], the “inhibition of epitope recognition” value was “block epitope recognition”, the “IC50 (inhibition of monoclonal antibody binding to the original epitope)” value is “less than 0.4 μg/ml” and the “Inhibitory capacity of mimotopes” value is on record as “strong”.
Consider `CCCC[C@H](NC(=O)[C@H](CCC(=O)O)NC(=O)[C@H](CCCCN)NC(=O)[C@@H](N)CC(=O)O)C(=O)N[C@@H](CCCNC(=N)N)C(=O)N[C@@H](CS)C(=O)O` [Peptide 4062, DKE(Nle)R] (HELM PEPTIDE1{D.K.E.[Nle].R.C}$$$$V2.0), for which the “inhibition of epitope recognition” value is given as “block epitope recognition” and the “inhibition (s/m/—)” value was “m”.
The like results for `CCC[C@H](NC(=O)[C@H](CCC(=O)O)NC(=O)[C@H](CCCCN)NC(=O)[C@@H](N)CC(=O)O)C(=O)N[C@@H](CCCNC(=N)N)C(=O)N[C@@H](CS)C(=O)O` [Peptide 4063, DKE(Nva)R] (HELM PEPTIDE1{D.K.E.[Nva].R.C}$$$$V2.0) were, in that order, “block epitope recognition” and “m”.
In the same order, the values of `N=C(N)NCCC[C@H](NC(=O)[C@H](CC1CCCCC1)NC(=O)[C@H](CCC(=O)O)NC(=O)[C@H](CCCCN)NC(=O)[C@@H](N)CC(=O)O)C(=O)N[C@@H](CS)C(=O)O` [Peptide 4064, DKEC(Cha)R] are “block epitope recognition” and “m”.
ATYAYWN [Peptide 4038]: the “inhibition of epitope recognition” value is listed as “not inhibitory at the concentrations tested” and the “inhibition (s/m/—)” value is reported as “—”.
“DAEFRH (not fully specified (C-terminus); listed as Homo sapiens) [Peptide 1737, reference compound]”: the “inhibition of epitope recognition” value is reported as “inhibits recognition by the monoclonal antibody; also recorded: can successfully compete”.
Take DAEFRWP [Peptide 4011]: the “inhibition of epitope recognition” value is given as “strongly block epitope recognition” and the “inhibition (s/m/—)” value is listed as “s”.
As for DIGWRG [Peptide 3011], the “inhibition of epitope recognition” value is given as “not inhibitory at the concentrations tested” and the “Inhibitory capacity of mimotopes” value is “none”.
As for DISFRG [Peptide 3010], the “inhibition of epitope recognition” value is on record as “not inhibitory at the concentrations tested” and the “Inhibitory capacity of mimotopes” value is given as “none”.
Take DKE(tBuGly)R (DKE[Tle]R) [Peptide 4061]: the “inhibition of epitope recognition” value is given as “not inhibitory at the concentrations tested” and the “inhibition (s/m/—)” value was “—”.
